Source: PMC2851732, “Peptide Inhibitors of Dengue-Virus Entry Target a Late-Stage Fusion Intermediate” (PLoS Pathogens, 2010)
Ends that are not written are not given here.

Each sequence was assayed against T1, DV2 sE(1–395) postfusion trimer (Dengue virus type 2, UniProt P12823) (assay: Fluorescence polarization binding of FITC-tagged stem peptides to postfusion sE trimer).
T1 construct: The sE component (residues 1–395) of the ectodomain is in ribbon representation; purchased Hawai'i Biotech
Design: species or system dengue virus serotype 2
In the case of “AILGDTAWDFGSLGGVFTSIGKALHQVF [DV2^413-440]”, the IC50 is reported as 250 nM.
For AILGDTAWDFGSLGGVFTSIGKA [DV2^413-435], the IC50 was 2000 nM.
AWDFGSLGGVFTSIGKALHQVF [DV2^419-440] gave an IC50 of 250 nM.
